Experimental data as given in PubChem BioAssay (NCI).
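Briefly, cells in 96-well plates were exposed to five compound concentrations for 48 h, and endpoints were estimated by linear interpolation. Here, GI50 denotes the concentration required for 50% inhibition of growth. At the TGI there is no net growth.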

Tests used:
Test in all cases: NCI tumour cell line growth inhibition, 48 h
M14 melanoma = system: M14 melanoma
HCT-15 colon = system: HCT-15 colon
HL-60(TB) leukemia = system: HL-60(TB) leukemia
CCRF-CEM leukemia = system: CCRF-CEM leukemia
SNB-75 CNS = system: SNB-75 CNS
EKVX NSCLC = system: EKVX NSCLC
HCC-2998 colon = system: HCC-2998 colon
MDA-MB-435 = system: MDA-MB-435
HOP-92 NSCLC = system: HOP-92 NSCLC
SW-620 colon = system: SW-620 colon
UO-31 renal = system: UO-31 renal
IGROV1 ovarian = system: IGROV1 ovarian
A549 NSCLC = system: A549 NSCLC
UACC-257 melanoma = system: UACC-257 melanoma
DU-145 prostate = system: DU-145 prostate
TK-10 renal = system: TK-10 renal
A498 renal = system: A498 renal
SK-MEL-5 melanoma = system: SK-MEL-5 melanoma
MALME-3M melanoma = system: MALME-3M melanoma
SF-539 CNS = system: SF-539 CNS
OVCAR-3 ovarian = system: OVCAR-3 ovarian
SNB-19 CNS = system: SNB-19 CNS
HOP-62 NSCLC = system: HOP-62 NSCLC
PC-3 prostate = system: PC-3 prostate
MOLT-4 leukemia = system: MOLT-4 leukemia
SK-MEL-28 melanoma = system: SK-MEL-28 melanoma
NCI-H522 lung = system: NCI-H522 lung
RXF 393 renal = system: RXF 393 renal
UACC-62 melanoma = system: UACC-62 melanoma
K-562 leukemia = system: K-562 leukemia
HT29 colon = system: HT29 colon
BT-549 breast = system: BT-549 breast
OVCAR-4 ovarian = system: OVCAR-4 ovarian
KM12 colon = system: KM12 colon
NCI/ADR-RES ovarian = system: NCI/ADR-RES ovarian
SN12C renal = system: SN12C renal
NCI-H23 lung = system: NCI-H23 lung
OVCAR-5 ovarian = system: OVCAR-5 ovarian
MCF7 breast = system: MCF7 breast
NCI-H460 lung = system: NCI-H460 lung
HS 578T breast = system: HS 578T breast
NCI-H226 lung = system: NCI-H226 lung
CAKI-1 renal = system: CAKI-1 renal
SR leukemia = system: SR leukemia
MDA-MB-468 breast = system: MDA-MB-468 breast
SK-MEL-2 melanoma = system: SK-MEL-2 melanoma
RPMI-8226 leukemia = system: RPMI-8226 leukemia
MDA-MB-231 breast = system: MDA-MB-231 breast
LOX IMVI melanoma = system: LOX IMVI melanoma
SK-OV-3 ovarian = system: SK-OV-3 ovarian
OVCAR-8 ovarian = system: OVCAR-8 ovarian
T-47D breast = system: T-47D breast
HCT-116 colon = system: HCT-116 colon
COLO 205 colon = system: COLO 205 colon
SF-268 CNS = system: SF-268 CNS
ACHN renal = system: ACHN renal
SF-295 CNS = system: SF-295 CNS
786-0 renal = system: 786-0 renal

## CN1CCN(c2ccc(Nc3nc(N4CCN(S(=O)(=O)c5ccc(F)cc5)CC4)c4sccc4n3)cc2)CC1
M14 melanoma
  GI50: 1.84 µM
  TGI: 3.56 µM
HCT-15 colon
  GI50: 1.67 µM
  TGI: 3.15 µM
HL-60(TB) leukemia
  GI50: 2.07 µM
  TGI: 4.25 µM
CCRF-CEM leukemia
  GI50: 2.39 µM
  TGI: 6.78 µM
SNB-75 CNS
  GI50: 11 µM
  TGI: 26.8 µM
EKVX NSCLC
  GI50: 3.95 µM
  TGI: 22.9 µM
HCC-2998 colon
  GI50: 1.69 µM
  TGI: 3.23 µM
MDA-MB-435
  GI50: 1.77 µM
  TGI: 3.26 µM
HOP-92 NSCLC
  GI50: 7.3 µM
  TGI: 24.1 µM
SW-620 colon
  GI50: 1.8 µM
  TGI: 3.33 µM
UO-31 renal
  GI50: 13.4 µM
  TGI: 29.1 µM
IGROV1 ovarian
  GI50: 2.19 µM
  TGI: 4.74 µM
A549 NSCLC
  GI50: 1.87 µM
  TGI: 4.44 µM
UACC-257 melanoma
  GI50: 1.58 µM
  TGI: 3.19 µM
DU-145 prostate
  GI50: 1.97 µM
  TGI: 3.76 µM
TK-10 renal
  GI50: 2.61 µM
  TGI: 7.37 µM
A498 renal
  GI50: 19.2 µM
  TGI: 34.5 µM
SK-MEL-5 melanoma
  GI50: 1.68 µM
  TGI: 3.05 µM
MALME-3M melanoma
  GI50: 1.72 µM
  TGI: 3.15 µM
SF-539 CNS
  GI50: 1.75 µM
  TGI: 3.18 µM
OVCAR-3 ovarian
  GI50: 1.91 µM
  TGI: 3.51 µM
SNB-19 CNS
  GI50: 2.64 µM
  TGI: 8.71 µM
HOP-62 NSCLC
  GI50: 11.5 µM
  TGI: > 100 µM
PC-3 prostate
  GI50: 2.13 µM
  TGI: 5.11 µM
MOLT-4 leukemia
  GI50: 2.45 µM
  TGI: 6.05 µM
SK-MEL-28 melanoma
  GI50: 1.68 µM
  TGI: 3.15 µM
NCI-H522 lung
  GI50: 1.64 µM
  TGI: 3.12 µM
RXF 393 renal
  GI50: 1.61 µM
  TGI: 3.14 µM
UACC-62 melanoma
  GI50: 1.71 µM
  TGI: 3.15 µM
K-562 leukemia
  GI50: 2.13 µM
  TGI: 5.73 µM
HT29 colon
  GI50: 1.83 µM
  TGI: 3.6 µM
BT-549 breast
  GI50: 17.8 µM
  TGI: 53.1 µM
OVCAR-4 ovarian
  GI50: 2 µM
  TGI: 4.2 µM
KM12 colon
  GI50: 2.02 µM
  TGI: 3.97 µM
NCI/ADR-RES ovarian
  GI50: 2 µM
  TGI: 4.42 µM
SN12C renal
  GI50: 1.73 µM
  TGI: 3.25 µM
NCI-H23 lung
  GI50: 4.35 µM
  TGI: 18.1 µM
OVCAR-5 ovarian
  GI50: 2.36 µM
  TGI: 5.94 µM
MCF7 breast
  GI50: 1.66 µM
  TGI: 3.18 µM
NCI-H460 lung
  GI50: 1.86 µM
  TGI: 3.45 µM
HS 578T breast
  GI50: 17.8 µM
  TGI: 55.4 µM
NCI-H226 lung
  GI50: 18.7 µM
  TGI: 48.2 µM
CAKI-1 renal
  GI50: 2.98 µM
  TGI: 10.1 µM
SR leukemia
  GI50: 2.01 µM
  TGI: 4.85 µM
MDA-MB-468 breast
  GI50: 1.5 µM
  TGI: 2.89 µM
SK-MEL-2 melanoma
  GI50: 19.7 µM
  TGI: 39.2 µM
RPMI-8226 leukemia
  GI50: 2.28 µM
  TGI: 4.98 µM
MDA-MB-231 breast
  GI50: 1.9 µM
  TGI: 3.4 µM

## CONC[C@]1(C)C=C2C(=O)[C@](C)(O)C3(CC3)C(C)=C2[C@H]1O
M14 melanoma
  GI50: 1.41 µM
  TGI: 4.87 µM
HCT-15 colon
  GI50: 0.384 µM
  TGI: > 100 µM
HL-60(TB) leukemia
  GI50: 0.485 µM
  TGI: 6.44 µM
CCRF-CEM leukemia
  GI50: 0.57 µM
  TGI: 6.66 µM
SNB-75 CNS
  GI50: 1.76 µM
  TGI: 3.8 µM
EKVX NSCLC
  GI50: 1.77 µM
  TGI: 4.85 µM
HCC-2998 colon
  GI50: 1.38 µM
  TGI: 3.4 µM
MDA-MB-435
  GI50: 1.84 µM
  TGI: 3.9 µM
HOP-92 NSCLC
  GI50: 0.705 µM
  TGI: 4.32 µM
SW-620 colon
  GI50: 1.78 µM
  TGI: > 100 µM
UO-31 renal
  GI50: 1.27 µM
  TGI: 4.39 µM
LOX IMVI melanoma
  GI50: 0.868 µM
  TGI: 6.63 µM
IGROV1 ovarian
  GI50: 1.6 µM
  TGI: 8.01 µM
A549 NSCLC
  GI50: 0.324 µM
  TGI: 11.3 µM
SK-OV-3 ovarian
  GI50: 1.31 µM
  TGI: 4.83 µM
UACC-257 melanoma
  GI50: 1.72 µM
  TGI: 4.62 µM
DU-145 prostate
  GI50: 0.436 µM
  TGI: 16.5 µM
TK-10 renal
  GI50: 3.32 µM
  TGI: 19.2 µM
OVCAR-8 ovarian
  GI50: 1.44 µM
  TGI: 4.35 µM
T-47D breast
  GI50: 2.05 µM
  TGI: 7.89 µM
A498 renal
  GI50: 2.23 µM
  TGI: 5.39 µM
SK-MEL-5 melanoma
  GI50: 1.05 µM
  TGI: 4.95 µM
MALME-3M melanoma
  GI50: 1.05 µM
  TGI: 2.49 µM
SF-539 CNS
  GI50: 1.28 µM
  TGI: 2.79 µM
OVCAR-3 ovarian
  GI50: 2.66 µM
  TGI: 7.96 µM
SNB-19 CNS
  GI50: 2.12 µM
  TGI: 7.58 µM
HOP-62 NSCLC
  GI50: 1.63 µM
  TGI: 4.55 µM
HCT-116 colon
  GI50: 0.298 µM
  TGI: 46.4 µM
PC-3 prostate
  GI50: 0.754 µM
  TGI: 6.12 µM
MOLT-4 leukemia
  GI50: 0.688 µM
  TGI: > 100 µM
SK-MEL-28 melanoma
  GI50: 1.81 µM
  TGI: 3.78 µM
NCI-H522 lung
  GI50: 0.314 µM
  TGI: 1.47 µM
RXF 393 renal
  GI50: 0.41 µM
  TGI: 1.65 µM
UACC-62 melanoma
  GI50: 1.55 µM
  TGI: 3.01 µM
K-562 leukemia
  GI50: 0.661 µM
  TGI: > 100 µM
COLO 205 colon
  GI50: 1.48 µM
  TGI: 3.21 µM
HT29 colon
  GI50: 0.42 µM
  TGI: 6.66 µM
BT-549 breast
  GI50: 1.02 µM
  TGI: 4.67 µM
SF-268 CNS
  GI50: 1.07 µM
  TGI: 12.8 µM
OVCAR-4 ovarian
  GI50: 2.9 µM
  TGI: 9.09 µM
KM12 colon
  GI50: 2.32 µM
  TGI: 15.4 µM
SN12C renal
  GI50: 2.33 µM
  TGI: 9.36 µM
NCI-H23 lung
  GI50: 0.422 µM
  TGI: 1.89 µM
OVCAR-5 ovarian
  GI50: 0.346 µM
  TGI: 5.65 µM
MCF7 breast
  GI50: 0.298 µM
  TGI: 5.34 µM
ACHN renal
  GI50: 0.233 µM
  TGI: 0.565 µM
SF-295 CNS
  GI50: 0.345 µM
  TGI: 42.4 µM
NCI-H460 lung
  GI50: 0.353 µM
  TGI: 11 µM
HS 578T breast
  GI50: 2.55 µM
  TGI: 7.26 µM
NCI-H226 lung
  GI50: 2.95 µM
  TGI: 9.13 µM
CAKI-1 renal
  GI50: 1.05 µM
  TGI: 18.8 µM
SR leukemia
  GI50: 0.65 µM
  TGI: > 100 µM
MDA-MB-468 breast
  GI50: 0.518 µM
  TGI: 1.97 µM
SK-MEL-2 melanoma
  GI50: 0.858 µM
  TGI: 2.25 µM
RPMI-8226 leukemia
  GI50: 9.67 µM
  TGI: > 100 µM
MDA-MB-231 breast
  GI50: 1.75 µM
  TGI: 5.88 µM
786-0 renal
  GI50: 1.65 µM
  TGI: 6.9 µM
